Each block holds one compound with its values, some of them ahead of it.
Legend:
NCI-H1975 [1] = experiment: Antiproliferative activity against human NCI-H1975 cells; format: functional, cell-based
[2] = molecular target: T1, Epidermal growth factor receptor (Homo sapiens, UniProt P00533, L858R/T790M); experiment: Inhibition of EGFR L858R/T790M (unknown origin)
PC-9 [3] = experiment: Cytotoxicity against human PC-9 cells assessed as reduction in cell viability incubated for 48 hrs by CCK-8 assay; format: functional, cell-based; settings: PC-9, 48 h
NCI-H1975 [4] = experiment: Cytotoxicity against human NCI-H1975 cells assessed as reduction in cell viability incubated for 48 hrs by CCK-8 assay; format: functional, cell-based; settings: NCI-H1975, 48 h
NCI-H292 = experiment: Cytotoxicity against human NCI-H292 cells assessed as reduction in cell viability incubated for 48 hrs by CCK-8 assay; format: functional, cell-based; settings: NCI-H292, 48 h
PC-9 [5] = experiment: Antiproliferative activity against human PC-9 cells harboring EGFR del19 mutant assessed as cell growth inhibition incubated for 72 hrs by CellTiter Glo assay; format: functional, cell-based; settings: PC-9, 72 h
A-431 = experiment: Antiproliferative activity against human A-431 cells assessed as reduction in cell viability incubated for 48 hrs by MTT assay; format: functional, cell-based; settings: A-431, 48 h
[6] = molecular target: Epidermal growth factor receptor (Homo sapiens, UniProt P00533); experiment: Inhibition of wild-type EGFR (unknown origin) using TK as substrate incubated for 120 mins in presence of ATP by HTRF assay
[7] = molecular target: T1, Epidermal growth factor receptor; experiment: Inhibition of EGFR L858R/T790M mutant (unknown origin)
[8] = Antiproliferative activity against mouse Ba/F3 EGFR-T790M/L858R cells incubated for 3 days by Cell Titer-Glo assay; format: functional, cell-based; settings: 72 h
[9] = Antiproliferative activity against mouse KC-0116 cells; format: toxicity, cell-based
LoVo [10] = experiment: Antiproliferative activity against human LoVo cells harboring wild-type EGFR assessed as reduction in cell viability; format: functional, cell-based
NCI-H1975 [11] = experiment: Antiproliferative activity against human NCI-H1975 cells harboring EGFR L858R/T790M double mutant assessed as reduction in cell growth incubated for 72 hrs by CellTiter-Glo luminescent assay; format: functional, cell-based; settings: NCI-H1975, 72 h
LoVo [12] = experiment: Antiproliferative activity against human LoVo cells harboring wild-type EGFR assessed as reduction in cell growth incubated for 72 hrs by CCK8 assay; format: functional, cell-based
PC-9 [13] = experiment: Antiproliferative activity against human PC-9 cells harboring EGFR Del19 mutant assessed as inhibition of cell growth incubated for 72 hrs by CCK8 assay; format: functional, cell-based; settings: PC-9, 72 h

T1 sequence (P00533 25-1210 T790M/L858R limits assumed): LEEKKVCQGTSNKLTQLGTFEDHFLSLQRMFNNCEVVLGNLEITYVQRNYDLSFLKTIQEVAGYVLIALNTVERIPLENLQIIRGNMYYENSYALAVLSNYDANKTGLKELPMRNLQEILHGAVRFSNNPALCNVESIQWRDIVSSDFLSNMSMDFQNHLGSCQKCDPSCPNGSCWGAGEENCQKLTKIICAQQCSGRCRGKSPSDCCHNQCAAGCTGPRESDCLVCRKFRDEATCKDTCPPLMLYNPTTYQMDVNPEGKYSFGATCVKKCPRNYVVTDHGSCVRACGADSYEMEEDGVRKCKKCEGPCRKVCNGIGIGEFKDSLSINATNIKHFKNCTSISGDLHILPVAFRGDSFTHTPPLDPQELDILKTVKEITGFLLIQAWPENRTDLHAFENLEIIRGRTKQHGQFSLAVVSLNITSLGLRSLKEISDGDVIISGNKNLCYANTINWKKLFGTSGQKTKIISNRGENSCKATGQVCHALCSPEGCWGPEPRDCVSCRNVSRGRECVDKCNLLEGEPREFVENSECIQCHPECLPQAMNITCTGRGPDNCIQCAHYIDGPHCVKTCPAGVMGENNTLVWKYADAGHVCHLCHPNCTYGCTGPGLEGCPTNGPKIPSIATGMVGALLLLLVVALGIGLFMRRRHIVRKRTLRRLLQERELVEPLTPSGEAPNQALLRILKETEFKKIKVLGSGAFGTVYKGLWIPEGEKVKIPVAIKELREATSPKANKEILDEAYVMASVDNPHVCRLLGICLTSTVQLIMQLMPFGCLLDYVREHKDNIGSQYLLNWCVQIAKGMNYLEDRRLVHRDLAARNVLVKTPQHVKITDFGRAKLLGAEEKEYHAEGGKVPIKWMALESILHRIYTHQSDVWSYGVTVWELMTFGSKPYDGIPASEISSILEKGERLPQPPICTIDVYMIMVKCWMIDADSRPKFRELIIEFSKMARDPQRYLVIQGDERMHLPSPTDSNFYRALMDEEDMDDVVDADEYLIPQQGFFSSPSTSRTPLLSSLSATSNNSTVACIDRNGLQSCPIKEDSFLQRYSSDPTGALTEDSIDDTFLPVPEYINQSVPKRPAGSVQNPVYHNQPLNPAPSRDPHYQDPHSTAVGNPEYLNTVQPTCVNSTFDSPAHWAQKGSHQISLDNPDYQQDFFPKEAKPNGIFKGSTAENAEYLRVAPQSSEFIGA
Chain of Epidermal growth factor receptor (Homo sapiens, UniProt P00533) (P00533 whole entry): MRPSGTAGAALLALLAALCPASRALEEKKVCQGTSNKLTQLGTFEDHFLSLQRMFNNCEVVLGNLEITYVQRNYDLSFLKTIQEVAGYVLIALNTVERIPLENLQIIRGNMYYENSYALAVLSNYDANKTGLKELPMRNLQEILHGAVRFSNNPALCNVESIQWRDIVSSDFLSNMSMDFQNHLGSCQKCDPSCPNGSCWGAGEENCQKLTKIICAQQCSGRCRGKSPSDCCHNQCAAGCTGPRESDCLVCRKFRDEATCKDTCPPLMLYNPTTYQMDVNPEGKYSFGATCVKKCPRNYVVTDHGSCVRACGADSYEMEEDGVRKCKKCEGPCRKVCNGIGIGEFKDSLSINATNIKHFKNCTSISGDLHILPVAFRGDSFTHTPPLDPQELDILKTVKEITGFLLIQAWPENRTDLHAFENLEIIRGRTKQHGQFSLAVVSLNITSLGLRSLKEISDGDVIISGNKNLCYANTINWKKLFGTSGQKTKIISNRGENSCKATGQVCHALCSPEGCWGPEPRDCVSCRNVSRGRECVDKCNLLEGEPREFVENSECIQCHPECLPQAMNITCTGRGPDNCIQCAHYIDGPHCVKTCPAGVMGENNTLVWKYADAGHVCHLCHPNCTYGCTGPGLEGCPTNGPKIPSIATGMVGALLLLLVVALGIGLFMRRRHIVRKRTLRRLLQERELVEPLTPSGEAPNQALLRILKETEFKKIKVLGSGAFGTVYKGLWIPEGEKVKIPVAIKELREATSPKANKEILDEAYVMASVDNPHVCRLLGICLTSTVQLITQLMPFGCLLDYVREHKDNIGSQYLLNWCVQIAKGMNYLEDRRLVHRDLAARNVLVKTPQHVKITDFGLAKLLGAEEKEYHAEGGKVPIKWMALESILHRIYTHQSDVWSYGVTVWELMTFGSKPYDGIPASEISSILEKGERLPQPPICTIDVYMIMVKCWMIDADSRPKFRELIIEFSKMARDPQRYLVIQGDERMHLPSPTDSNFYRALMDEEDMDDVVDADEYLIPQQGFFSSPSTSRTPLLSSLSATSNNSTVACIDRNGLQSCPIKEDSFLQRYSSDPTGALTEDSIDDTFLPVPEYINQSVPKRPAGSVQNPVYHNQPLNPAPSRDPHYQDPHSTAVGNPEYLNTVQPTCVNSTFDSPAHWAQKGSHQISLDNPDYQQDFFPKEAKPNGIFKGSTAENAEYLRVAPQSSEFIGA

IC50 (NCI-H1975 [1]): 0.03 µM
IC50 [2]: 0.0125 µM
Structure (SMILES): C=CC(=O)Nc1cc(Nc2nccc(-c3cn(C)c4ccccc34)n2)c(OC)cc1N(C)CCN(C)C(=O)c1ccc(Br)cc1

Structure (SMILES): C=CC(=O)Nc1cc(Nc2nccc(-c3csc4ccccc34)n2)c(OC)cc1N(C)CCCN(C)C
IC50 (PC-9 [3]): 0.3 µM
IC50 (NCI-H1975 [4]): 0.17 µM
IC50 (NCI-H292): 4 µM

Structure (SMILES): C=CC(=O)Nc1cc(Nc2nccc(-c3csc4ccccc34)n2)c(OC)cc1N1CCN(C(C)C)CC1
IC50 (PC-9 [3]): 1.3 µM
IC50 (NCI-H1975 [4]): 0.13 µM
IC50 (NCI-H292): > 10 µM

IC50 (NCI-H1975 [1]): 0.02 µM
IC50 [2]: 0.0081 µM
Structure (SMILES): C=CC(=O)Nc1cc(Nc2nccc(-c3cn(C)c4ccccc34)n2)c(OC)cc1N(C)CCN(C)Cc1ccc(Br)cc1

Structure (SMILES): C=CC(=O)Nc1cc(Nc2nccc(-c3cn(C)c4ccccc34)n2)c(OC)cc1N(C)CCN(C)C [OSIMERTINIB]
IC50 (NCI-H292): 2 µM

IC50 [2]: 0.008 µM
Structure (SMILES): C=CC(=O)Nc1cc(Nc2nccc(Nc3cnn(CC)c3)n2)c(OC)cc1N(C)CCN(C)C

IC50 [6]: 0.00411 µM
IC50 [7]: 0.00026 µM
Structure (SMILES): C=CC(=O)Nc1cc(Nc2nccc(-c3csc4ccccc34)n2)c(OC)cc1N(C)CCN(C)C
IC50 (PC-9 [3]): 0.004 µM
IC50 (NCI-H1975 [4]): 0.002 µM
IC50 (NCI-H292): 4.4 µM

IC50 (NCI-H1975 [1]): 0.004 µM
Structure (SMILES): C=CC(=O)Nc1cc(Nc2nccc(-c3cn(C)c4ccccc34)n2)c(OC)cc1N(C)CCN(C)Cc1ccccc1

IC50 (NCI-H1975 [1]): 0.008 µM
IC50 [2]: 0.0057 µM
Structure (SMILES): C=CC(=O)Nc1cc(Nc2nccc(-c3cn(C)c4ccccc34)n2)c(OC)cc1N(C)CCN(C)CC(=O)OC

Structure (SMILES): COc1cc(N(C)CCN(C)C)c(NC(=O)CN)cc1Nc1nccc(-c2cn(C)c3ccccc23)n1
IC50 [8]: 2.72 µM
IC50 [9]: 1.32 µM

IC50 [2]: 0.161 µM
Structure (SMILES): COc1cc(N(C)CCN(C)C)c(NC(=O)c2ccncn2)cc1Nc1nccc(-c2cn(CCCO)c3ccccc23)n1

IC50 [2]: 0.242 µM
Structure (SMILES): COc1cc(N(C)CCN(C)C)c(NC(=O)c2ccncn2)cc1Nc1nccc(-c2cn(C)c3ccccc23)n1

Structure (SMILES): CN1CCN(C2CCN(c3ccc(Nc4nccc(-c5cn(C)c6ccccc56)n4)cc3NS(=O)(=O)C3CC3)CC2)CC1
IC50 [8]: 0.2 µM
IC50 [9]: 0.17 µM

IC50 (PC-9 [5]): 0.002 µM
IC50 (LoVo [10]): 0.046 µM
IC50 (NCI-H1975 [11]): 0.0009 µM
Structure (SMILES): C=CC(=O)Nc1cc(Nc2ncc(C#N)c(-c3cn(C)c4ccccc34)n2)c(OC)cc1N(C)CCN(C)C

Structure (SMILES): Cn1cc(-c2ccnc(Nc3ccc(N4CCOCC4)cc3)n2)c2ccccc21
IC50 [8]: > 10 µM
IC50 [9]: 7 µM

IC50 [2]: 0.00858 µM
Structure (SMILES): C#CCN(C)CCN(C)c1cc(OC)c(Nc2nccc(Nc3ccn(C)n3)n2)cc1NC(=O)C=C

IC50 (PC-9 [5]): 0.0006 µM
IC50 (LoVo [10]): 0.011 µM
IC50 (NCI-H1975 [11]): 0.0002 µM
Structure (SMILES): C=CC(=O)Nc1cc(Nc2ncc(Cl)c(-c3c[nH]c4ccccc34)n2)c(OC)cc1N(C)CCN(C)C

IC50 (NCI-H1975 [1]): 0.002 µM
IC50 [2]: 0.002 µM
Structure (SMILES): C=CCCN(C)CCN(C)c1cc(OC)c(Nc2nccc(-c3cn(C)c4ccccc34)n2)cc1NC(=O)C=C

IC50 (LoVo [12]): 0.145 µM
IC50 (PC-9 [13]): 0.002 µM
IC50 (NCI-H1975 [11]): 0.0006 µM
Structure (SMILES): C=CC(=O)Nc1cc(Nc2ncc(Cl)c(-c3cnn4ccccc34)n2)c(OC)cc1N(C)CCN(C)C

Structure (SMILES): CN(C)C1CCN(c2ccc(Nc3nccc(-c4cn(C)c5ccccc45)n3)cc2NS(=O)(=O)C2CC2)CC1
IC50 [8]: 0.25 µM
IC50 [9]: 0.24 µM

IC50 [2]: 0.0061 µM
Structure (SMILES): C=CC(=O)Nc1cc(Nc2nccc(Nc3ccn(C)n3)n2)c(OC)cc1N(C)CCN(C)C

IC50 (LoVo [12]): 1.6 µM
IC50 (PC-9 [13]): 0.028 µM
IC50 (NCI-H1975 [11]): 0.019 µM
Structure (SMILES): C=CC(=O)Nc1cc(Nc2ncc(Cl)c(-c3cnn4ccccc34)n2)c(OC)cc1N1CCN(C(=O)[C@H](C)N)CC1

IC50 (PC-9 [5]): 0.002 µM
IC50 (LoVo [10]): 0.058 µM
IC50 (NCI-H1975 [11]): 0.002 µM
Structure (SMILES): C=CC(=O)Nc1cc(Nc2ncc(Cl)c(-c3cn(C)c4ccccc34)n2)c(OC)cc1N(C)CCN(C)C

Structure (SMILES): COCC(=O)Nc1cc(Nc2nccc(-c3cn(C)c4ccccc34)n2)c(OC)cc1N1CCC(N(C)C)CC1
IC50 [8]: 0.45 µM
IC50 [9]: 0.46 µM

IC50 [2]: 0.137 µM
Structure (SMILES): COc1cc(N(C)CCN(C)C)c(NC(=O)c2ccnc(Cl)c2)cc1Nc1nccc(-c2cn(CCCO)c3ccccc23)n1

— ChEMBL document CHEMBL5576081, “Exploring the structural activity relationship of the Osimertinib: A covalent inhibitor of double mutant EGFRL858R/T790M tyrosine kinase for the treatment of Non-Small Cell Lung Cancer (NSCLC)” (Bioorg Med Chem, 2024)
